Measured values: PubChem BioAssay (NCI)
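Dose response: 5 concentrations. Exposure: 48 h. Format: 96-well plates. Endpoint: linear interpolation; highest concentration if not reached. GI50 marks 50% less growth. TGI: total growth inhibition.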

Assays:
Assay in all cases: inhibition of tumour cell growth, NCI panel, 48 h
ACHN renal = tested on: ACHN renal
K-562 leukemia = tested on: K-562 leukemia
MOLT-4 leukemia = tested on: MOLT-4 leukemia
OVCAR-8 ovarian = tested on: OVCAR-8 ovarian
SF-539 CNS = tested on: SF-539 CNS
MDA-MB-435 = tested on: MDA-MB-435
NCI-H522 lung = tested on: NCI-H522 lung
NCI/ADR-RES ovarian = tested on: NCI/ADR-RES ovarian
SF-268 CNS = tested on: SF-268 CNS
BT-549 breast = tested on: BT-549 breast

SMILES	TGI (ACHN renal) [µM]	TGI (K-562 leukemia) [µM]	TGI (MOLT-4 leukemia) [µM]	TGI (OVCAR-8 ovarian) [µM]	TGI (SF-539 CNS) [µM]	GI50 (ACHN renal) [µM]	GI50 (K-562 leukemia) [µM]	GI50 (MDA-MB-435) [µM]	TGI (MDA-MB-435) [µM]	GI50 (MOLT-4 leukemia) [µM]	GI50 (NCI-H522 lung) [µM]	TGI (NCI-H522 lung) [µM]	GI50 (NCI/ADR-RES ovarian) [µM]	TGI (NCI/ADR-RES ovarian) [µM]	GI50 (OVCAR-8 ovarian) [µM]	GI50 (SF-268 CNS) [µM]	TGI (SF-268 CNS) [µM]	GI50 (SF-539 CNS) [µM]	GI50 (BT-549 breast) [µM]	TGI (BT-549 breast) [µM]
C/C(=N\NC(N)=S)c1ccc(Oc2ccccc2)cc1	42.7	21.5	17.4	52.3	17.6															
N=C(N)c1ccc(-c2ccc(-c3cccs3)s2)cc1F	2.93	1.31	2.87	5.19	3.38	1.45	0.341	1.13	2.37	1.03	1.94	3.88	2	4.3	2.04	1.65	3.37	1.35		
O=C(c1ccco1)c1c(C(F)(F)F)n([O-])c2cc(Cl)c(Cl)cc2[n+]1=O	1.11	2.87	1.41	6.6	1.53	0.443	0.173	0.877	1.81	0.0591	0.202	1.33	0.845	1.78	1.03	0.236	0.774	0.768		
CC[C@H]1CNC(=O)CC1CC(=O)OC (stereo partly drawn)	> 100		> 100	> 100	> 100							> 100					> 100			
O=P(c1ccccc1)(c1ccccc1)C1CC=C2CCCCCC2C1 (stereo not drawn)		76.9	45.3	99.2	> 10							41					66			
COc1cc(-c2nn(-c3cccc(NC(=O)NCCNC(=O)c4ccccc4)c3)cc2-c2ccncc2)ccc1Cl	> 100		> 100	41.7	7.44	3.14		2.41	9.29	2.18	1.79	7.37			0.576	4.27	> 100	0.859	2.21	8.05
O=c1[nH]c(-c2ccncc2)nc2sc3c(c12)CCCCCC3	> 100	> 100	> 100	> 100	> 100	> 100	> 100	> 100	> 100	> 100	> 100	> 100			> 100	> 100	> 100	> 100	> 100	> 100
COc1cc(C(=O)N[C@@H]2CCCN(C)C2)ccc1Nc1ncc2c(n1)N(C1CCCC1)CC(C)(C)C(=O)N2C	19.4	3.19	3.89	16.8	1.69	1.55	0.0378			0.0417	0.0209	0.0575	0.344	16.2	0.0541	0.588	20.1	0.203	0.73	18
Cc1nn(-c2ccccc2)c2c1[C@@H](C)[C@H]1CC3(CC4(C)C[C@@H]3C1(C)c1c(C)nn(-c3ccccc3)c1N4C)N2C (stereo partly drawn)					> 100						3.88	> 100	> 100	> 100		> 100	> 100	> 100	> 100	> 100
O=C(c1ccccc1)N1CCc2c([nH]c3ccccc23)C1	> 100	> 100	64.4	> 100	> 100							64.8								
O=C1N(c2ccccc2)C2(O)C(=O)c3ccccc3C2(O)N1c1ccccc1 (stereo not drawn)	> 100	> 100	> 100	> 100	> 100							> 100					> 100			
COc1cc(Br)c(C2OCCCO2)cc1OCc1ccccc1	> 100	> 100	> 100	> 100	> 100							> 100					> 100			
CCOc1ccc(/C=C/C(=O)c2sc(NNC(C)=O)nc2C)cc1	> 100	> 100	> 100	> 100	> 100							> 100					> 100			
O=c1c2cc(F)ccc2sc2c(NCCCNCCO)nc3ccc(F)cc3c12	2.89	6.68		4.75	3.12	1.54	2.34	1.71	3.2		1.91	4.03	1.67	3.22	2.09	1.57	3.22	1.68	11.1	26.7
CC(C)CC(=O)O[C@H]1C(=O)O[C@@H]2C[C@H]3[C@H](C)C(=O)C(O[C@@H]4O[C@H](CO)[C@@H](O)[C@H](O)[C@H]4O)=C[C@]3(C)[C@H]3[C@@H](O)[C@H](O)[C@]4(C(=O)O)OC[C@]32[C@@H]14	> 100	> 100	> 100	> 100	53.3	> 100	24		> 100	18.9			> 100	> 100	> 100	> 100	> 100	20.5		> 100
O=C(N=Nc1c(O)[nH]c2c(Cl)cc(Cl)cc12)C(=O)Nc1cccc(C(F)(F)F)c1	> 100		> 100	> 100	> 100				> 100					> 100						> 100
N#CCC1CCN(c2nc(Nc3ccc(N4CCC(O)CC4)cc3)c3c(=O)[nH]ncc3n2)CC1	> 100	> 100	> 100	> 100	2.82	0.473	1.51	0.628	> 100	0.652	> 100	> 100			8.08	1.2	> 100	0.869	1.28	> 100
O=C(CC1(O)C(=O)Nc2ccc(Br)cc21)c1cccc([N+](=O)[O-])c1 (stereo not drawn)	> 100	> 100	70.1	> 100								67.2					> 100			
CCc1cccc(CC)c1NC1=CC(=O)C(=O)c2ccccc21	26	> 100	> 100	36.7	35.4							28.3					72.5			
COc1ccc2c(c1)c(-c1nc(-c3cn(C)c4ncccc34)cs1)cn2CCCCN1CCCCC1	3					1.65		1.66	3.04										1.64	3.05
Cc1cc(Br)ccc1N=NC1C(=O)ON=C1c1ccccc1 (stereo not drawn)	> 100	> 100	> 100	> 100	> 100							> 100					> 100			

SMILES	TGI (ACHN renal) [µM]	TGI (K-562 leukemia) [µM]	TGI (MOLT-4 leukemia) [µM]	TGI (OVCAR-8 ovarian) [µM]	TGI (SF-539 CNS) [µM]	GI50 (ACHN renal) [µM]	GI50 (K-562 leukemia) [µM]	GI50 (MDA-MB-435) [µM]	TGI (MDA-MB-435) [µM]	GI50 (MOLT-4 leukemia) [µM]	GI50 (NCI-H522 lung) [µM]	TGI (NCI-H522 lung) [µM]	GI50 (NCI/ADR-RES ovarian) [µM]	TGI (NCI/ADR-RES ovarian) [µM]	GI50 (OVCAR-8 ovarian) [µM]	GI50 (SF-268 CNS) [µM]	TGI (SF-268 CNS) [µM]	GI50 (SF-539 CNS) [µM]	GI50 (BT-549 breast) [µM]	TGI (BT-549 breast) [µM]
C/C=C/C(C/C=C(\C)CO[Si](C)(C)C(C)(C)C)O[Si](C)(C)C(C)(C)C (stereo not drawn)	> 100	> 100	> 100	> 100	> 100				> 100			> 100		> 100			> 100			
CC(=O)Nc1ccc(/C=C/C(=O)c2sc(-n3nc(-c4ccccc4)cc3-c3ccccc3)nc2C)cc1	> 100	> 100	> 100	> 100	> 100	> 100	> 100			> 100		> 100			> 100	> 100	> 100	> 100		
BrC(/C=N/Nc1nnc(-c2ccccc2)c(-c2ccccc2)n1)C(Br)c1ccccc1 (stereo not drawn)	> 100	> 100	> 100	> 100	> 100							54.1					> 100			
O=c1ccn([C@@H]2C[C@H](CO)CS(=O)C2)c(=O)[nH]1 (stereo partly drawn)	> 100	> 100	> 100	> 100	> 100							> 100					> 100			
CC(=O)[O-].O=C([CH-]C(=O)c1ccccc1)c1ccccc1.O=C([CH-]C(=O)c1ccccc1)c1ccccc1.[Dy+3]	> 100	17.8	31.9	36.5	56.1	14.3	3.55			4.59	10.4	36.9			4.78	10.4	56.4	18.9		
N#CC1(C2CC(=O)N(c3ccccc3)C2=O)CCCCC1=O (stereo not drawn)	> 100	> 100	> 100	> 100	> 100												> 100			
O=C(Nc1cc(Cl)ccc1Cl)c1cc2ccccc2oc1=O	> 100	> 100	> 100	> 100	> 100							> 100								
N#Cc1cccc(C2SCc3nc4ccccc4n32)c1 (stereo not drawn)	> 100	> 100	> 100	> 100	> 100							> 100					> 100			
O=C(/C=C/c1c[nH]c2ccccc12)c1ccccc1O	25.2	> 100	37	39.2	25.1				27.9			23					40			28.3
CC1SC(c2ccc(OCc3ccccc3)cc2)N(NC(=O)C(O)(c2ccccc2)c2ccccc2)C1=O (stereo not drawn)	9.38	> 100	5.58	38.6	42.6	2.74	3.36	3.52	13.8	2.02			3.72	17.8	12.7	3.66	15	14	5.45	22.4
O=C(NC(=Nc1ccccc1)SCCSC(=Nc1ccccc1)NC(=O)c1ccccc1)c1ccccc1	> 100	> 100	> 100	> 100	> 100							73					> 100			
C=CN(C(=O)N1CCN(c2cc3c(cc2F)c(=O)c(C(=O)O)cn3C2CC2)CC1)c1nc(-c2ccc(C)cc2)cs1	> 100	> 100		19.9		3.38	1.96				2.27	6.23	2.67	7.24	3.33	4.02	> 100		0.306	2.11
Cc1nc2ccccc2c(=O)n1/N=C(\N=Nc1ccc(Cl)cc1)c1ccc(N(C)C)cc1	> 100	> 100	> 100	> 100	> 100							> 100					> 100			
CC1(C)OC2OC(/C=C/[N+](=O)[O-])C3OC(C)(C)OC3C2O1 (stereo not drawn)	28.8	27.5	13.2	40.9	28.3							3.36					39.5			
O=C1C(=C2C(=O)c3ccccc3[N+]2=O)N([O-])c2ccccc21	91.4	50.1	48.7	50.4	47.7												88.5			
C=CC(C)(C)[C@@]12CC3C(=O)N[C@@H](Cc4ccccc4)C(=O)N3[C@@H]1N(C(C)=O)c1ccccc12 (stereo partly drawn)	> 100	> 100	71.7	> 100	> 100															
Cc1c(Cl)ccc2[s+]snc12	> 100	73.7	95.1	57.1	44.6							41.5					62.8			
CC(=O)NNc1nc(C)c(C(=O)NNC(=O)C(=O)Nc2ccc(C)cc2[N+](=O)[O-])s1	> 100	> 100	> 100	> 100	> 100							78					> 100			
COc1cc(CC2c3cc(OC)c(OC)cc3CCN2C)c(C(=O)O)cc1OC (stereo not drawn)	> 100	> 100	> 100	> 100	> 100							> 100					> 100			
COc1ccc2c(c1)OCC1c3cc(OC)ccc3OC21 (stereo not drawn)	> 100	> 100	61.1	> 100	> 100	53.1	56.7	50.8	> 100	8.94			32	> 100	80.3	50.5	> 100	97.7	34.4	> 100
